# From ChEMBL document CHEMBL1201862, “PubChem BioAssay data set” (2004)
#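 Five concentrations, 48 hours, 96-well plates. The concentration for 50% growth inhibition is given as GI50.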 The source made the active and inactive calls. Cut-off read from the data, not from the text of the source: active = GI50 up to about 1.1 µM and inactive = higher.
# What was measured:
# Assay in all cases: NCI tumour cell line growth inhibition, 48 h
# SF-268 = test system: SF-268
# NCI-H23 = test system: NCI-H23
# OVCAR-5 = test system: OVCAR-5
# ACHN = test system: ACHN
# SW-620 = test system: SW-620
# EKVX = test system: EKVX
# M14 = test system: M14
# T47D = test system: T47D
# HCT-15 = test system: HCT-15
# HCC 2998 = test system: HCC 2998
# TK-10 = test system: TK-10
# COLO 205 = test system: COLO 205
# SN12C = test system: SN12C
# A549 = test system: A549
# IGROV-1 = test system: IGROV-1
# OVCAR-4 = test system: OVCAR-4
# UACC-257 = test system: UACC-257
# SK-MEL-2 = test system: SK-MEL-2
# CAKI-1 = test system: CAKI-1
# HL-60 = test system: HL-60
# SK-MEL-28 = test system: SK-MEL-28
# HT-29 = test system: HT-29
# UACC-62 = test system: UACC-62
# SK-MEL-5 = test system: SK-MEL-5
# NCI/ADR-RES = test system: NCI/ADR-RES
# SR = test system: SR
# OVCAR-3 = test system: OVCAR-3
# NCI-H460 = test system: NCI-H460
# PC-3 = test system: PC-3
# K562 = test system: K562
# MCF7 = test system: MCF7
# MOLT-4 = test system: MOLT-4
# OVCAR-8 = test system: OVCAR-8
# KM12 = test system: KM12
# MDA-N = test system: MDA-N
# HOP-62 = test system: HOP-62
# BT-549 = test system: BT-549
# CCRF-CEM = test system: CCRF-CEM
# SNB-19 = test system: SNB-19
# UO-31 = test system: UO-31
# Malme-3M = test system: Malme-3M
# SF-539 = test system: SF-539
# Hs-578T = test system: Hs-578T
# NCI-H522 = test system: NCI-H522
# SNB-75 = test system: SNB-75
# DU-145 = test system: DU-145
# HOP-92 = test system: HOP-92
# MDA-MB-435 = test system: MDA-MB-435
# A498 = test system: A498
# RXF 393 = test system: RXF 393
# SK-OV-3 = test system: SK-OV-3
# RPMI-8226 = test system: RPMI-8226
# LOX IMVI = test system: LOX IMVI
# HCT-116 = test system: HCT-116
# MDA-MB-231 = test system: MDA-MB-231
# U-251 = test system: U-251
# NCI-H226 = test system: NCI-H226
# 786-0 = test system: 786-0
# SF-295 = test system: SF-295
smiles,measurement,setting,value
COc1cc(C2c3cc4c(cc3OC(NNc3ccccc3)C2C)OCO4)cc(OC)c1OC (stereo not drawn),GI50,SF-268,1.86 µM (inactive)
same,GI50,NCI-H23,2.83 µM (inactive)
same,GI50,OVCAR-5,1.69 µM (inactive)
same,GI50,ACHN,0.631 µM (active)
same,GI50,SW-620,1.4 µM (inactive)
same,GI50,EKVX,1.73 µM (inactive)
same,GI50,M14,869 nM (active)
same,GI50,T47D,2.43 µM (inactive)
same,GI50,HCT-15,417 nM
same,GI50,HCC 2998,0.953 µM (active)
same,GI50,TK-10,2.48 µM (inactive)
same,GI50,COLO 205,1.46 µM (inactive)
same,GI50,SN12C,2.99 µM (inactive)
same,GI50,A549,1.6 µM (inactive)
same,GI50,IGROV-1,1.26 µM (inactive)
same,GI50,OVCAR-4,4.94 µM (inactive)
same,GI50,UACC-257,2.07 µM (inactive)
same,GI50,SK-MEL-2,1.23 µM (inactive)
same,GI50,CAKI-1,0.982 µM (active)
same,GI50,HL-60,1.58 µM (inactive)
same,GI50,SK-MEL-28,1.57 µM (inactive)
same,GI50,HT-29,986 nM (active)
same,GI50,UACC-62,0.544 µM (active)
same,GI50,SK-MEL-5,1.32 µM (inactive)
same,GI50,NCI/ADR-RES,597 nM (active)
same,GI50,SR,673 nM (active)
same,GI50,OVCAR-3,993 nM (active)
same,GI50,NCI-H460,1.02 µM (active)
same,GI50,PC-3,0.778 µM (active)
same,GI50,K562,437 nM (active)
same,GI50,MCF7,714 nM (active)
same,GI50,MOLT-4,1.09 µM (active)
same,GI50,OVCAR-8,2.81 µM (inactive)
same,GI50,KM12,395 nM (active)
same,GI50,MDA-N,255 nM (active)
same,GI50,HOP-62,0.923 µM (active)
same,GI50,BT-549,1.01 µM (active)
same,GI50,CCRF-CEM,885 nM (active)
same,GI50,SNB-19,1.32 µM (inactive)
same,GI50,UO-31,0.91 µM (active)
same,GI50,Malme-3M,0.935 µM (active)
same,GI50,SF-539,571 nM (active)
same,GI50,Hs-578T,2.96 µM (inactive)
same,GI50,NCI-H522,977 nM (active)
same,GI50,SNB-75,8.3 µM (inactive)
same,GI50,DU-145,2.11 µM (inactive)
same,GI50,HOP-92,6.43 µM (inactive)
same,GI50,MDA-MB-435,305 nM (active)
same,GI50,A498,2.22 µM (inactive)
same,GI50,RXF 393,1.54 µM (inactive)
same,GI50,SK-OV-3,2.08 µM (inactive)
same,GI50,RPMI-8226,1.43 µM (inactive)
same,GI50,LOX IMVI,0.706 µM (active)
same,GI50,HCT-116,1.03 µM (active)
same,GI50,MDA-MB-231,3.26 µM (inactive)
same,GI50,U-251,1.12 µM (inactive)
same,GI50,NCI-H226,1.92 µM (inactive)
same,GI50,786-0,1.1 µM (active)
same,GI50,SF-295,0.361 µM (active)
COc1ccc(C2c3cc4c(cc3OC3(OC)COC(=O)C23)OCO4)c(OC)c1 (stereo not drawn),GI50,SF-268,14.6 µM (inactive)
same,GI50,NCI-H23,29.3 µM (inactive)
same,GI50,OVCAR-5,54.7 µM (inactive)
same,GI50,ACHN,34.8 µM (inactive)
same,GI50,SW-620,6.43 µM (inactive)
same,GI50,EKVX,16.2 µM (inactive)
same,GI50,M14,3730 nM (inactive)
same,GI50,T47D,29.4 µM (inactive)
same,GI50,HCT-15,5190 nM
same,GI50,HCC 2998,30 µM (inactive)
same,GI50,TK-10,32.6 µM (inactive)
same,GI50,COLO 205,5.62 µM (inactive)
same,GI50,SN12C,15.6 µM (inactive)
same,GI50,A549,10.1 µM (inactive)
same,GI50,IGROV-1,10.5 µM (inactive)
same,GI50,OVCAR-4,19.1 µM (inactive)
same,GI50,UACC-257,6.24 µM (inactive)
same,GI50,SK-MEL-2,12.6 µM (inactive)
same,GI50,CAKI-1,7.43 µM (inactive)
same,GI50,HL-60,2.32 µM (inactive)
same,GI50,SK-MEL-28,18.4 µM (inactive)
same,GI50,HT-29,3400 nM (inactive)
same,GI50,UACC-62,5.73 µM (inactive)
same,GI50,SK-MEL-5,4.84 µM (inactive)
same,GI50,NCI/ADR-RES,3230 nM (inactive)
same,GI50,SR,4490 nM (inactive)
same,GI50,OVCAR-3,4720 nM (inactive)
same,GI50,NCI-H460,7.14 µM (inactive)
same,GI50,PC-3,17.7 µM (inactive)
same,GI50,K562,5080 nM (inactive)
same,GI50,MCF7,4850 nM (inactive)
same,GI50,MOLT-4,4.91 µM (inactive)
same,GI50,OVCAR-8,9.84 µM (inactive)
same,GI50,KM12,3430 nM (inactive)
same,GI50,MDA-N,1770 nM (inactive)
same,GI50,HOP-62,8.39 µM (inactive)
same,GI50,BT-549,6.56 µM (inactive)
same,GI50,CCRF-CEM,4320 nM (inactive)
same,GI50,SNB-19,14.2 µM (inactive)
same,GI50,UO-31,14.9 µM (inactive)
same,GI50,Malme-3M,8.63 µM (inactive)
same,GI50,SF-539,4620 nM (inactive)
same,GI50,Hs-578T,3.78 µM (inactive)
same,GI50,NCI-H522,2430 nM (inactive)
same,GI50,SNB-75,8.93 µM (inactive)
same,GI50,DU-145,31.9 µM (inactive)
same,GI50,HOP-92,26.5 µM (inactive)
same,GI50,MDA-MB-435,1710 nM (inactive)
same,GI50,A498,39.5 µM (inactive)
same,GI50,RXF 393,6.59 µM (inactive)
same,GI50,SK-OV-3,15.9 µM (inactive)
same,GI50,RPMI-8226,3.56 µM (inactive)
same,GI50,LOX IMVI,6.95 µM (inactive)
same,GI50,HCT-116,5.33 µM (inactive)
same,GI50,MDA-MB-231,27.1 µM (inactive)
same,GI50,U-251,7.35 µM (inactive)
same,GI50,NCI-H226,25.1 µM (inactive)
same,GI50,786-0,11.3 µM (inactive)
same,GI50,SF-295,12.8 µM (inactive)
